By minimal effective dose is commonly meant the smallest amount tested that counted as effective.

This is an account of results in patent EP4711368A1 (priority 2023, dated 2024).

Like-named read-outs stand apart in the source and are kept apart here. Where only a bound is given, the exact number is not on record here.

The subject of data set [1] is SD rats. In words: animal or person. The settings on record: iv; for Minimal effective analgesic dose / Minimal effective anesthetic dose / Onset time / Righting feflex duration / Sedation Duration: rat, in vivo; for minimal effective dose: Rattus norvegicus. It is filed as in vivo.
For data set [2], the system named is SD rats. The data set is described as follows: TC-ED50 after single intravenous injection (Table 2; method not described). It counts as in vivo.
The subject of data set [3] is SD rats. The settings on record: rat, in vivo; for MLD: iv.
[4] abbreviates: read-out: Minimal effective anesthetic dose.
Where [5] appears, read: read-out: Minimal effective analgesic dose.
Throughout, for Onset time: test concentration or dose not given here.
Throughout, for Righting feflex duration: test concentration or dose not given here.
Throughout, for Sedation Duration: test concentration or dose not given here.

Regarding `CCC(=O)OCC1N=C(c2ccccn2)c2cc(Br)ccc2-n2c(C)cnc21` (stereo not shown) [Compound 98], in the data set on SD rats [1], the “Minimal effective analgesic dose” value is listed as 20 mg/kg, the “Minimal effective anesthetic dose” value worked out at 5.0 mg/kg, the Onset time was 0.5 to 0.6 min and the Righting feflex duration lay in the range of 11.6 to 17.4 min. The “Sedation Duration” value in the data set on SD rats [1] lay in the range of 72.5 to 208.7 min. The TC-ED50 in the data set on SD rats [2] was found to be 22.0 mg/kg. In the data set with SD rats [3], the TI came out at 6.0 and the MLD came out at 30 mg/kg.

In the case of `Cc1cnc2n1-c1ccc(Br)cc1C(c1ccccn1)=NC2COC(=O)C(C)C` (stereo not shown) [Compound 97], in the data set on SD rats [1], the “Minimal effective analgesic dose” value is reported as 10 mg/kg, the “Minimal effective anesthetic dose” value is 2.0 mg/kg, the Onset time is 0.4 to 0.7 min and the Righting feflex duration is 0.7 to 129.9 min. Also, the “Sedation Duration” value in the data set with SD rats [1] lay within 16.9 to 187.5 min. The same compound yielded a TC-ED50 with SD rats [2] of 9.9 mg/kg. Besides, in the data set on SD rats [3], the TI stood at 15.0 and the MLD was 30 mg/kg.

For `CC(C)OC(=O)OCC1N=C(c2ccccn2)c2cc(Br)ccc2N(C)C1=O` (stereo not shown) [Compound 55], in the data set with SD rats [1], the “Minimal effective analgesic dose” value is 20 mg/kg, the “Minimal effective anesthetic dose” value is 1.0 mg/kg, the Onset time is 0.2 to 0.7 min and the Righting feflex duration was in the range of 2.4 to 25.4 min. Also, the “Sedation Duration” value in the data set on SD rats [1] is 11.3 to 141.0 min. For the same compound, the TC-ED50 with SD rats [2] was 15.4 mg/kg. In addition, in the data set on SD rats [3], the TI is recorded as >20. 0 and the MLD is above 20 mg/kg.

In the case of `C=CC(C)(C)OC(=O)CCC1N=C(c2ccccn2)c2cc(Br)ccc2N(C)C1=O` (stereo not shown) [Compound 19], in the data set with SD rats [1], the “Minimal effective anesthetic dose” value came to 1.0 mg/kg, the Onset time is 0.4 to 1.0 min, the Righting feflex duration lay in the range of 1.2 to 5.5 min and the “Sedation Duration” value lay within 9.7 to 14.8 min. In the data set with SD rats [3], this compound yielded a TI above 1.9 and an MLD above 1.9 mg/kg.

Consider `CN1C(=O)N(COCc2ccccc2)N=C(c2ccccn2)c2cc(Br)ccc21` [Compound 286], for which, in the data set with SD rats [1] (setting [4]), the minimal effective dose is 2.5 mg/kg. Besides, in the data set with SD rats [1], the Onset time lay within 1.32 to 3.20 min, the Righting feflex duration lay within 3.38 to 9.38 min and the “Sedation Duration” value is 42.15 to 64.37 min. In addition, in the data set with SD rats [3] (SD), the TI is recorded as 3 and the MLD amounted to 7.5 mg/kg.

`Cc1cnc2n1-c1ccc(Br)cc1C(c1ccccn1)=NC2CCOC(=O)CCCl` (stereo not shown) [Compound 150]: in the data set with SD rats [1], the “Minimal effective anesthetic dose” value is 2.5 mg/kg, the Onset time was in the range of 0.2 to 0.4 min, the Righting feflex duration was 0.8 to 13.5 min and the “Sedation Duration” value was 16.9 to 33.9 min. For the same compound, in the data set with SD rats [3], the TI is 5.5 and the MLD is on record as 13.7 mg/kg.

For `C#CC(C)(C)OC(=O)CCC1N=C(c2ccccn2)c2cc(Br)ccc2N(C)C1=O` (stereo not shown) [Compound 17], in the data set with SD rats [1], the “Minimal effective anesthetic dose” value was determined as 1.3 mg/kg, the Onset time is 0.2 to 0.5 min, the Righting feflex duration was in the range of 1.6 to 3.3 min and the “Sedation Duration” value is 6.6 to 9.9 min. Further, in the data set on SD rats [3], the TI is on record as above 3.8 and the MLD was above 5 mg/kg.

In the case of `C=CC(C)OC(=O)CN1N=C(c2ccccn2)c2cc(Br)ccc2N(C)C1=O` (stereo not shown) [Compound 248], the minimal effective dose in the data set on SD rats [1] (setting [5]) came to 20 mg/kg. Further, the minimal effective dose with SD rats [1] (setting [4]) was determined as 10 mg/kg. Besides, in the data set with SD rats [1], the Onset time lay within 0.15 to 0.52 min, the Righting feflex duration lay within 2.97 to 38.32 min and the “Sedation Duration” value is 138.4 to 240 min. For the same compound, in the data set on SD rats [3] (SD), the TI is 4 and the MLD worked out at 40 mg/kg.

Consider `Cc1cnc2n1-c1ccc(Br)cc1C(c1ccccn1)=NC2COC(=O)c1ccccc1` (stereo not shown) [Compound 191], for which, in the data set on SD rats [1], the “Minimal effective analgesic dose” value is 20 mg/kg, the “Minimal effective anesthetic dose” value is recorded as 5.0 mg/kg, the Onset time was in the range of 0.45 to 0.53 min and the Righting feflex duration is 0.7 to 12.8 min. For the same compound, the “Sedation Duration” value in the data set on SD rats [1] is 53.5 to 155.3 min. Moreover, in the data set with SD rats [3], the TI is on record as 6.8 and the MLD is 34.0 mg/kg.

As to `CN1C(=O)N(CC(=O)OC2(C)COC2)N=C(c2ccccn2)c2cc(Br)ccc21` [Compound 253], the minimal effective dose with SD rats [1] (setting [5]) came out at 20 mg/kg. In the data set on SD rats [1] (setting [4]), the minimal effective dose came out at 10 mg/kg. Moreover, in the data set with SD rats [1], the Onset time is 0.87 to 0.88 min, the Righting feflex duration was in the range of 1.38 to 11.07 min and the “Sedation Duration” value was 10.13 to 31.28 min. Also, in the data set with SD rats [3] (SD), the TI is given as 3 and the MLD worked out at 30 mg/kg.

As for `CN1C(=O)N(COC(=O)N2CCCC2)N=C(c2ccccn2)c2cc(Br)ccc21` [Compound 295], in the data set on SD rats [1] (setting [4]), the minimal effective dose is 20 mg/kg. In the data set on SD rats [1], the Onset time lay within 0.20 to 0.52 min, the Righting feflex duration was 3.70 to 13.25 min and the “Sedation Duration” value is 34.23 to 172.50 min. Moreover, in the data set with SD rats [3] (SD), the TI amounted to 2 and the MLD is 40 mg/kg.

In the case of `CN1C(=O)N(CC(=O)OC2COC2)N=C(c2ccccn2)c2cc(Br)ccc21` [Compound 245], the minimal effective dose with SD rats [1] (setting [5]) came out at 20 mg/kg. In the data set with SD rats [1] (setting [4]), the minimal effective dose came to 10 mg/kg. In the data set on SD rats [1], the Onset time lay within 0.15 to 0.67 min, the Righting feflex duration was 1.27 to 1.40 min and the “Sedation Duration” value was in the range of 11.02 to 18.83 min. In the data set on SD rats [3] (SD), this compound returned a TI of 4 and an MLD of 40 mg/kg.
